Assay results from PubChem BioAssay (NCI).
Where “and” joins values, the source holds several entries; their conditions need not be identical. Equal values may be shown once.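 1) Cells in 96-well plates. 2) Compound, 48 h, 5 concentrations. 3) Linear interpolation between surrounding doses. 4) Unreached endpoint = highest concentration. GI50 = concentration required for 50% inhibition of growth. The concentration for full growth arrest is given as TGI.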

Legend:
Experiment in all cases: NCI-60 cell line screen, 48 h
NCI-H226 lung = system: NCI-H226 lung
SN12C renal = system: SN12C renal
MCF7 breast = system: MCF7 breast
BT-549 breast = system: BT-549 breast
OVCAR-5 ovarian = system: OVCAR-5 ovarian
HCT-15 colon = system: HCT-15 colon
CAKI-1 renal = system: CAKI-1 renal
SNB-75 CNS = system: SNB-75 CNS
SW-620 colon = system: SW-620 colon
SF-295 CNS = system: SF-295 CNS

SMILES	GI50 (NCI-H226 lung) [µM]	TGI (NCI-H226 lung) [µM]	GI50 (SN12C renal) [µM]	TGI (SN12C renal)	GI50 (MCF7 breast) [µM]	TGI (MCF7 breast) [µM]	GI50 (BT-549 breast) [µM]	TGI (BT-549 breast) [µM]	GI50 (OVCAR-5 ovarian) [µM]	TGI (OVCAR-5 ovarian)	GI50 (HCT-15 colon) [µM]	TGI (HCT-15 colon)	GI50 (CAKI-1 renal) [µM]	TGI (CAKI-1 renal)	GI50 (SNB-75 CNS) [µM]	TGI (SNB-75 CNS) [µM]	GI50 (SW-620 colon) [µM]	TGI (SW-620 colon)	GI50 (SF-295 CNS) [µM]	TGI (SF-295 CNS)
O=S(=O)(Cc1ccc(Cl)cc1Cl)c1ccc(Cl)cc1	4.52	> 100	1.5	> 100 µM	0.341	> 100	1.54	> 75.4	4.28	> 100 µM	0.419	> 100 µM	0.52	> 100 µM	0.732	> 27.5	0.365	> 100 µM	0.495	10.8 µM
Cc1ccc(NC(=O)Cc2ccc(/C=C/C(=O)c3ncc[nH]3)cc2)cc1	9.59	> 25	5.91	> 25 µM	1.15	> 25	6.42	> 25	6.84	> 25 µM	2.01	15.6 µM	9.62	> 25 µM	7	> 25	5.22	> 25 µM	7.9	> 25 µM
N=C(N)c1ccc(OCCOCCOc2ccc(C(=N)N)cc2)cc1	> 100	> 100	58.8	> 100 µM	89.1	> 100	53.5	> 100	> 100	> 100 µM	84.1	> 100 µM	> 100	> 100 µM	> 100	> 100	> 100	> 100 µM	44.7	> 100 µM
CCC1C(=O)OCc2c1cc1n(c2=O)Cc2cc3ccccc3nc2-1 (stereo not given)		> 100		> 100 µM		> 48.6		> 59.5		> 100 µM		> 100 µM		16.3 µM		25.9		> 100 µM		> 33.7 µM
Clc1ccc(/C=C/c2cc(N3CCOCC3)c3cc(Cl)c(Cl)cc3n2)cc1	> 100	> 100	1.54	> 100 µM	> 100	> 100	0.706	> 40.2	> 100	> 100 µM	> 100	> 100 µM	> 100	> 100 µM	> 100	> 100	> 100	> 100 µM	> 100	> 100 µM
O=C1CC(c2cccc(O)c2)C2(C(=O)NC(=S)NC2=O)C(c2cccc(O)c2)C1 (stereo not given)	> 100	> 100	> 100	> 100 µM	> 100	> 100	> 100	> 100	> 100	> 100 µM	> 100	> 100 µM	> 100	> 100 µM	> 100	> 100	> 100	> 100 µM	> 100	> 100 µM
N#Cc1ncc(-c2ccc(C(F)(F)F)cc2)c(NCc2cc(C(F)(F)F)cc(C(F)(F)F)c2)n1	4.85	> 100	3.54	> 100 µM	2.74	> 100	5.88	> 100	8.9	> 100 µM	3.52	> 100 µM	3.6	61.9 µM	3.19	68.8	3.13	> 100 µM	2.78	29.1 µM
CN(Cc1ccc(Cl)cc1)c1ccc(CO)c(Cl)c1	0.115	0.285	8.55	22.6 µM	1.34	12.5	5.31	19.9	0.644	4.67 µM	5.42	39.5 µM	1.43	12 µM	7.06	26.4	3.85	19.5 µM	2.48	16 µM
CCCc1cc(O)c2c3c(c(=O)oc2c1)CN(C)CC3	> 100	> 100	> 100	> 100 µM	44.8	> 100	48.1	> 100	> 100	> 100 µM	39.9	> 100 µM	> 100	> 100 µM	22.1	> 100	> 100	> 100 µM	28.3	> 100 µM
CCC[CH2][Sn]([CH2]CCC)([O]C(=O)c1cc(F)ccc1F)[O][Sn]([CH2]CCC)([CH2]CCC)[O]C(=O)c1cc(F)ccc1F	0.354	1.25	0.314	1.27 µM	0.0822	0.776	0.225	0.946	1.76	3.16 µM	0.254	0.87 µM	0.129	0.621 µM	0.365	1.66	0.116	0.274 µM	0.606	1.85 µM
O=[N+]([O-])c1ccccc1N=Nc1c(O)[nH]c2ccc(Br)cc12		> 48.9		44.8 µM		59.9		> 47.3		33.3 µM		> 56 µM		33.1 µM		36.1		> 62.4 µM		34.3 µM
COc1cccc(C2C3=C(COC3=O)N(CCO)c3cc(OC)ccc32)c1 (stereo not given)	0.182	8.86	0.493	> 100 µM	0.0348	> 100	0.295	> 28.5	0.442	> 100 µM	0.121	> 100 µM	0.768	> 100 µM	0.0671	> 100	0.0863	> 100 µM	0.0422	> 100 µM
S=C(N/N=C(/c1ccccc1)c1ccccn1)N1CCCCC1	0.00148		0.171	2.18 µM and 2.68 µM		4.12		2.53	< 0.001	2.49 µM and 2.11 µM	< 0.001	2.22 µM and 3.94 µM	0.107	1.66 µM and 2.33 µM		2.92	< 0.001	1.23 µM and 2.96 µM	0.188	1.75 µM and 2.11 µM
Cn1cc(C2=C(c3cccc(N)c3)C(=O)NC2=O)c2ccccc21	10	> 25	13.7	> 25 µM	4.19	> 25	> 19.3	> 25	> 25	> 25 µM	12.8	> 25 µM	13	> 25 µM	0.0779	> 25	17.8	> 25 µM	3.93	> 25 µM
COC(=O)C1=C(C)NC(C)=C(C(=O)OC)C1/C=C(\Cl)c1ccc(Cl)c(Cl)c1	15.8	38.2	14	27.5 µM	11.4	33.5	16.6	32.2	16.8	30.4 µM	12.3	26.9 µM	13.7	27.2 µM	8.25	22.9	12.2	28.7 µM	6.26	21.6 µM
CCOc1ccc(-c2cnnn2-c2nonc2-n2cccc2)cc1	1.52	> 100	0.557	> 100 µM	0.283	> 100	0.363		1.08	> 100 µM	0.251	> 100 µM	0.352	> 100 µM	0.138	0.527	0.111	> 100 µM	0.295	> 91.2 µM
Cn1ccnc1C(=O)/C=C/c1ccc(C(=O)Nc2ccc(S(F)(F)(F)(F)F)cc2)cc1	6.57	> 14.3	2.77	> 14.3 µM	0.481	> 14.3	2.62	> 14.3	3.3	> 14.3 µM	0.799	4.92 µM	2.1	> 14.3 µM	0.761	> 14.3	0.54	5.58 µM	1.62	> 14.3 µM
COc1cc(-n2cc(-c3ccc(F)cc3)nc2SCc2ccccc2)cc(OC)c1OC	> 100	> 100	> 100	> 100 µM	> 100	> 100	> 100	> 100	> 100	> 100 µM	> 100	> 100 µM	> 100	> 100 µM	> 100	> 100	> 100	> 100 µM	> 100	> 100 µM
O=C1c2cccnc2C(=O)C2C3C=CC(C3)C12 (stereo not given)		32		29.2 µM		15.4		24		35.8 µM		34.8 µM		31.9 µM		25.8		28.2 µM		26.6 µM
COc1cc2cc(C(=O)CCC(=O)O)sc2cc1OC	47.4	> 100	> 100	> 100 µM	> 100	> 100	> 100	> 100	> 100	> 100 µM	> 100	> 100 µM	> 100	> 100 µM	12.7	> 100	> 100	> 100 µM	> 100	> 100 µM
